Results published in ChEMBL document CHEMBL1140215, “Discovery of sodium R-(+)-4-{2-[5-(2-fluoro-3-methoxyphenyl)-3-(2-fluoro-6-[trifluoromethyl]benzyl)-4-methyl-2,6-dioxo-3,6-dihydro-2H-pyrimidin-1-yl]-1-phenylethylamino}butyrate (elagolix), a potent and orally available nonpeptide antagonist of the human gonadotropin-releasing hormone receptor” (J Med Chem, 2008).
Blank lines part the entries; values can stand above or below the molecule they belong to. Calls of active or inactive are those of the source. The rule behind the calls is not given here.

Assays:
[1] = target: T1, Gonadotropin-releasing hormone receptor (Homo sapiens, UniProt P30968); assay: Displacement of [125I-Tyr5,DLeu6,NMeLeu7,Pro9-NEt-]GnRH from human GnRH receptor expressed in HEK293 cells by liquid scintillation counting; format: cell-based
T1 sequence (P30968 whole entry): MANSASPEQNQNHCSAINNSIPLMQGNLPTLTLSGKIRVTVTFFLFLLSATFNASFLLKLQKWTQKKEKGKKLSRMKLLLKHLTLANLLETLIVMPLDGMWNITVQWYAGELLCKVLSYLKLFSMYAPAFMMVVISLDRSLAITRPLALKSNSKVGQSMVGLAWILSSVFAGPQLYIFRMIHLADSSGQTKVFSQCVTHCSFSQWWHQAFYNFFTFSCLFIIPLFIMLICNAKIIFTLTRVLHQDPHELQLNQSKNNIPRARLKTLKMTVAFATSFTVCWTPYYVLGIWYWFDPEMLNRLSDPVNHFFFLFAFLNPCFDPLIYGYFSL

Cytochrome P450 3A4 = Cytochrome P450 3A4 (Homo sapiens, UniProt P08684); assay: Inhibition of CYP3A4; format: ADME
[2] = target: T1, Gonadotropin-releasing hormone receptor; assay: Antagonist activity at human GnRH receptor expressed in RBL1 cells assessed as inhibition of GnRH-stimulated inositol phosphate production; format: functional, cell-based, RBL-1
[3] = target: T2, Gonadotropin-releasing hormone receptor (Rattus norvegicus, UniProt P30969); assay: Displacement of [125I-Tyr5,DLeu6,NMeLeu7,Pro9-NEt-]GnRH from rat GnRH receptor expressed in CHO cells by liquid scintillation counting; format: cell-based
T2 sequence (P30969 whole entry): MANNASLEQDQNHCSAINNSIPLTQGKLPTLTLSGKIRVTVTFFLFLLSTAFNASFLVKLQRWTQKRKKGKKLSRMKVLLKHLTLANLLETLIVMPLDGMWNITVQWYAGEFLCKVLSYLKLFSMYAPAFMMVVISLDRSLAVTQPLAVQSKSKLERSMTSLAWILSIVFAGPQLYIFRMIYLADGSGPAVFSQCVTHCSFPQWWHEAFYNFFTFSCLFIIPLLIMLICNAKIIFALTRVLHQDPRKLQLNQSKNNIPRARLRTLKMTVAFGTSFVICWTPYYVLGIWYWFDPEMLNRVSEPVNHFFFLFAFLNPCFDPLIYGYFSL

[4] = Cmax in rat at 10 mg/kg, iv and 10 mg/kg, po; format: ADME, organism-based; conditions: in vivo
[5] = Tmax in rat at 10 mg/kg, iv and 10 mg/kg, po; format: ADME, organism-based; conditions: in vivo
[6] = AUC in rat at 10 mg/kg, iv and 10 mg/kg, po; format: ADME, organism-based; conditions: plasma
Caco-2 [7] = assay: Ratio of permeability from apical to basolateral side over basolateral to apical side in human Caco-2 cells at 1 mM; format: ADME, cell-based; conditions: caco-2, 1000 µM
Cynomolgus monkey [8] = assay: Suppression of circulating plasma LH levels in cynomolgus monkey at 30 mg/kg, po after 8 hrs; format: functional, Macaca fascicularis
[9] = target: T3, Gonadotropin-releasing hormone receptor (Macaca mulatta, UniProt Q8SPZ1); assay: Displacement of [125I-Tyr5,DLeu6,NMeLeu7,Pro9-NEt-]GnRH from monkey GnRH receptor expressed in CHO cells by liquid scintillation counting; format: cell-based
T3 sequence (Q8SPZ1 whole entry): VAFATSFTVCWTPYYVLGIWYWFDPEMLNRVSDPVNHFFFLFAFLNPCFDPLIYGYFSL

Mast cell = assay: Induction of histamine release in rat peritoneal mast cells; format: functional, cell-based
[10] = Apparent permeability across human Caco-2 cell membrane; format: ADME, cell-based
Caco-2 [11] = assay: Ratio of permeability from apical to basolateral side over basolateral to apical side in human Caco-2 cells; format: ADME, cell-based
[12] = Lipophilicity, log D of the compound; format: physicochemical; conditions: octanol/water
[13] = Half life in rat at 3 mg/kg, iv; format: ADME, organism-based; parameters: dose 3 mg/kg, route intravenous; conditions: in vivo
[14] = Plasma clearance in rat at 3 mg/kg, iv; format: ADME, organism-based; parameters: dose 3 mg/kg, route intravenous
[15] = Volume of distribution in rat at 3 mg/kg, iv; format: ADME, organism-based; parameters: dose 3 mg/kg, route intravenous; conditions: in vivo
[16] = Cmax in rat at 3 mg/kg, iv; format: ADME, organism-based; parameters: dose 3 mg/kg, route intravenous; conditions: in vivo
[17] = Tmax in rat at 3 mg/kg, iv; format: ADME, organism-based; parameters: dose 3 mg/kg, route intravenous; conditions: in vivo
[18] = (§1) AUC in rat at 3 mg/kg, iv; format: ADME, organism-based, Plasma; parameters: dose 3 mg/kg, route intravenous; conditions: plasma
[19] = Bioavailability in rat at 3 mg/kg, iv; format: ADME, organism-based; conditions: in vivo
[20] = Half life in mouse; format: ADME, organism-based; conditions: in vivo
[21] = Plasma clearance in mouse; format: ADME, organism-based
[22] = Volume of distribution in mouse; format: ADME, organism-based; conditions: in vivo
[23] = Cmax in mouse; format: ADME, organism-based; conditions: in vivo
[24] = Tmax in mouse; format: ADME, organism-based; conditions: in vivo
[25] = AUC in mouse; format: ADME, organism-based; conditions: plasma
[26] = Oral bioavailability in mouse; format: ADME, organism-based; conditions: in vivo
[27] = Half life in rhesus monkey; format: ADME, organism-based, Macaca mulatta; conditions: in vivo
[28] = Plasma clearance in rhesus monkey; format: ADME, organism-based, Macaca mulatta
[29] = Volume of distribution in rhesus monkey; format: ADME, organism-based, Macaca mulatta; conditions: in vivo
[30] = Cmax in rhesus monkey; format: ADME, organism-based, Macaca mulatta; conditions: in vivo
[31] = Tmax in rhesus monkey; format: ADME, organism-based, Macaca mulatta; conditions: in vivo
[32] = AUC in rhesus monkey; format: ADME, organism-based, Macaca mulatta; conditions: plasma
[33] = Oral bioavailability in rhesus monkey; format: ADME, organism-based, Macaca mulatta; conditions: in vivo
[34] = Half life in Beagle dog at 50 mg/kg, po; format: ADME, organism-based, Canis lupus familiaris; parameters: dose 50 mg/kg, route oral; conditions: in vivo
[35] = Plasma clearance in Beagle dog at 50 mg/kg, po; format: ADME, organism-based, Canis lupus familiaris; parameters: dose 50 mg/kg, route oral
Canis familiaris = assay: Volume of distribution in Beagle dog at 50 mg/kg, po; format: ADME, organism-based, Canis lupus familiaris; parameters: dose 50 mg/kg, route oral; conditions: in vivo
[36] = Cmax in Beagle dog at 50 mg/kg, po; format: ADME, organism-based, Canis lupus familiaris; parameters: dose 50 mg/kg, route oral; conditions: in vivo
[37] = Tmax in Beagle dog at 50 mg/kg, po; format: ADME, organism-based, Canis lupus familiaris; parameters: dose 50 mg/kg, route oral; conditions: in vivo
[38] = AUC in Beagle dog at 50 mg/kg, po; format: ADME, organism-based, Canis lupus familiaris; parameters: dose 50 mg/kg, route oral; conditions: plasma
[39] = Bioavailability in Beagle dog at 50 mg/kg; format: ADME, organism-based, Canis lupus familiaris; conditions: in vivo
Cynomolgus monkey [40] = assay: Suppression of circulating plasma LH levels in cynomolgus monkey at 30 mg/kg, po after 4 to 8 hrs; format: functional, Macaca fascicularis
[41] = Half life in rat at 10 mg/kg, iv and 10 mg/kg, po; format: ADME, organism-based; conditions: in vivo
[42] = Plasma clearance in rat at 10 mg/kg, iv and 10 mg/kg, po; format: ADME, organism-based
[43] = Volume of distribution in rat at 10 mg/kg, iv and 10 mg/kg, po; format: ADME, organism-based; conditions: in vivo
[44] = Oral bioavailability in rat at 10 mg/kg, iv and 10 mg/kg, po; format: ADME, organism-based; conditions: in vivo
Rattus norvegicus = assay: as §1; format: ADME, organism-based, Plasma; parameters: dose 3 mg/kg, route intravenous; conditions: in vivo

Cytochrome P450 3A4, sequence (P08684 whole entry): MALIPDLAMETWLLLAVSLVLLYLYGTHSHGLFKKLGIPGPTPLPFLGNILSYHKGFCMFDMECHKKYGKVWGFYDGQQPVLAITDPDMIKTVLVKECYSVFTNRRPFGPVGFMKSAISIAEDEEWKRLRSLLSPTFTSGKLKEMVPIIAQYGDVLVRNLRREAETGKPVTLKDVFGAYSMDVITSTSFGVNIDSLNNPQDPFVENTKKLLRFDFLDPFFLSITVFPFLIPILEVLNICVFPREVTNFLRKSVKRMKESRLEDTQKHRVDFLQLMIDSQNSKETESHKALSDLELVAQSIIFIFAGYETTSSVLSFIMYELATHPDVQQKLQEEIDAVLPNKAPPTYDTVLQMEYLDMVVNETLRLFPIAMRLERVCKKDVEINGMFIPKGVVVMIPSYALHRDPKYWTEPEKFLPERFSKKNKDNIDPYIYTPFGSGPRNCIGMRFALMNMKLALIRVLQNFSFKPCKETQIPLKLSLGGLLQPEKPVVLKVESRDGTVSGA

Structure (SMILES): COc1cccc(-c2c(C)n(Cc3c(F)cccc3C(F)(F)F)c(=O)n(C[C@H](N)c3ccccc3)c2=O)c1F
- IC50 [2]: 0.5 nM
- IC50 (Cytochrome P450 3A4): 230 nM
- Ki [3]: 1200 nM
- Cmax [4]: 15 ng/mL
- Tmax [5]: 1.2 h
- AUC [6]: 46 ng·h/mL

Structure (SMILES): COc1cccc(-c2c(C)n(Cc3c(F)cccc3C(F)(F)F)c(=O)n(C[C@H](NCCCC(=O)[O-])c3ccccc3)c2=O)c1F.[Na+] [ELAGOLIX SODIUM]
- Ratio (Caco-2 [7]): 1.3
- Activity (Cynomolgus monkey [8]): 75%
- Ki [1]: 0.9 nM
- IC50 [2]: 1.5 nM
- IC50 (Cytochrome P450 3A4): 56000 nM
- Ki [3]: 4400 nM
- Ki [9]: 3.3 nM
- Activity (Mast cell): inactive
- Papp [10]: 2.8 ×10⁻⁶ cm/s
- Ratio (Caco-2 [11]): 9.2
- logD [12]: 2
- half-life [13]: 0.9 h
- clearance [14]: 33.3 mL/min/kg
- Vd [15]: 2.6 L/kg
- Cmax [16]: 338 ng/mL
- Tmax [17]: 0.25 h
- AUC [18]: 290 ng·h/mL
- bioavailability [19]: 5.8%
- half-life [20]: 0.3 h
- clearance [21]: 50 mL/min/kg
- Vd [22]: 1.4 L/kg
- Cmax [23]: 741 ng/mL
- Tmax [24]: 0.25 h
- AUC [25]: 326 ng·h/mL
- bioavailability [26]: 10%
- half-life [27]: 1.1 h
- clearance [28]: 25.7 mL/min/kg
- Vd [29]: 2.5 L/kg
- Cmax [30]: 518 ng/mL
- Tmax [31]: 0.69 h
- AUC [32]: 699 ng·h/mL
- bioavailability [33]: 11%
- half-life [34]: 2.8 h
- CL/F [35]: 14.5 mL/min/kg
- Vd (Canis familiaris): 0.92 L/kg
- Cmax [36]: 13900 ng/mL
- Tmax [37]: 2 h
- AUC [38]: 80700 ng·h/mL
- bioavailability [39]: 100%

Structure (SMILES): COc1cccc(-c2c(C)n(Cc3c(F)cccc3C(F)(F)F)c(=O)n(C[C@H](NCCCCC(=O)O)c3ccccc3)c2=O)c1F
- Ki [1]: 7.6 nM
- IC50 (Cytochrome P450 3A4): 29000 nM

Structure (SMILES): COc1cccc(-c2c(C)n(Cc3c(F)cccc3C(F)(F)F)c(=O)n(C[C@H](NCC(=O)O)c3ccccc3)c2=O)c1F
- Ki [1]: 71 nM

Continued by falling IC50 (Cytochrome P450 3A4), values first:

- Ki [1]: 2.1 nM
- IC50 [2]: 27 nM
- IC50 (Cytochrome P450 3A4): 135000 nM
- Ki [3]: > 10000 nM
- Papp [10]: 0.4 ×10⁻⁶ cm/s
- Ratio (Caco-2 [11]): 51
- logD [12]: 0.2
- half-life [13]: 4.5 h
- Vd [15]: 8.5 L/kg
- Cmax [16]: 25 ng/mL
- Tmax [17]: 0.8 h
- AUC (Rattus norvegicus): 81 ng·h/mL
- bioavailability [19]: 1.1%
Structure (SMILES): COc1cccc(-c2c(C)n(Cc3c(F)cccc3F)c(=O)n(C[C@H](NCCCC(=O)O)c3ccccc3)c2=O)c1F

- Ki [1]: 3.7 nM
- IC50 (Cytochrome P450 3A4): 69000 nM
- Papp [10]: 7.5 ×10⁻⁶ cm/s
- Ratio (Caco-2 [11]): 4
- half-life [13]: 2.6 h
- clearance [14]: 26.4 mL/min/kg
- Vd [15]: 3.2 L/kg
- Cmax [16]: 592 ng/mL
- Tmax [17]: 0.25 h
- AUC [18]: 385 ng·h/mL
- bioavailability [19]: 3.7%
Structure (SMILES): COc1cccc(-c2c(C)n(Cc3c(F)cccc3C(F)(F)F)c(=O)n(C[C@@H](c3ccccc3)N(C)CCCC(=O)O)c2=O)c1F

- Ki [1]: 12 nM
- IC50 (Cytochrome P450 3A4): 69000 nM
Structure (SMILES): COc1cccc(-c2c(C)n(Cc3c(F)cccc3C(F)(F)F)c(=O)n(C[C@H](NCCC(=O)O)c3ccccc3)c2=O)c1F

- Ki [1]: 1.1 nM
- IC50 [2]: 3.2 nM
- IC50 (Cytochrome P450 3A4): 11000 nM
Structure (SMILES): COc1cccc(-c2c(C)n(Cc3c(F)cccc3Cl)c(=O)n(C[C@H](NCCCC(=O)O)c3ccccc3)c2=O)c1F

- IC50 (Cytochrome P450 3A4): 700 nM
- Papp [10]: 17.6 ×10⁻⁶ cm/s
- logD [12]: 1.8
- half-life [41]: 1.3 h
- clearance [42]: 64.7 mL/min/kg
- Vd [43]: 7.1 L/kg
- Cmax [4]: 24.2 ng/mL
- Tmax [5]: 1 h
- AUC [6]: 106 ng·h/mL
- bioavailability [44]: 3.5%
Structure (SMILES): COc1cccc(-c2c(C)n(Cc3c(F)cccc3F)c(=O)n(C[C@H](N)c3ccccc3)c2=O)c1F
- Activity (Cynomolgus monkey [40]): 50%

- Ki [1]: 4.2 nM
- IC50 (Cytochrome P450 3A4): 440 nM
Structure (SMILES): COC(=O)CCCN[C@@H](Cn1c(=O)c(-c2cccc(OC)c2F)c(C)n(Cc2c(F)cccc2C(F)(F)F)c1=O)c1ccccc1
